System: SARS-CoV-2 beta variant
Design: species or system BALB/C mice
Conditions: mouse, in vivo, 5 mg/kg

In the case of `O=P(O)(O)OC[C@H]1O[C@@H](n2cnc3c(S)ncnc32)[C@H](O)[C@@H]1O` [thioinosinic acid], the “lung viral titers compared to vehicle control” value is reported as “approximately tenfold lower”.

For `Cn1cnc([N+](=O)[O-])c1Sc1ncnc2nc[nH]c12` [azathioprine], the “lung viral titers compared to vehicle control” value was “did not demonstrate a significant reduction in viral titers”.

Source: article PMC10740425, “How Deep Learning in Antiviral Molecular Profiling Identified Anti-SARS-CoV-2 Inhibitors” (Biomedicines, 2023)
